{
  "source": "patent US6673827B1",
  "about": "“Methods of treating fungal infections with inhibitors of NAD synthetase enzyme” (priority 1999, dated 2004)",
  "key": {"[1]": {"tested_on": "Candida tropicalis ATCC 28707", "experiment": "In vitro study of inhibition of growth and lethality against yeast (MIC/MLC susceptibility test), isolate B", "format": "cell-based", "conditions": "Candida tropicalis, 1st pair of lines, isolate assigned by line order"}, "[2]": {"tested_on": "Candida albicans LH-000664533", "experiment": "In vitro study of inhibition of growth and lethality against yeast (MIC/MLC susceptibility test), isolate D", "format": "cell-based", "conditions": "Candida albicans, 2nd pair of lines, isolate assigned by line order"}, "[3]": {"tested_on": "Cryptococcus neoformans SLP-BC0012854", "experiment": "In vitro study of inhibition of growth and lethality against yeast (MIC/MLC susceptibility test), isolate H", "format": "cell-based", "conditions": "Cryptococcus neoformans, 2nd pair of lines, isolate assigned by line order"}, "[4]": {"tested_on": "Candida tropicalis ATCC 750", "experiment": "In vitro study of inhibition of growth and lethality against yeast (MIC/MLC susceptibility test), isolate A", "format": "cell-based", "conditions": "Candida tropicalis, 2nd pair of lines, isolate assigned by line order"}, "[5]": {"tested_on": "Cryptococcus neoformans DLB-1027594CNC", "experiment": "In vitro study of inhibition of growth and lethality against yeast (MIC/MLC susceptibility test), isolate G", "format": "cell-based", "conditions": "Cryptococcus neoformans, 1st pair of lines, isolate assigned by line order"}, "[6]": {"tested_on": "Candida tropicalis (ATCC 28707-amphotericin B-resistant)", "experiment": "Minimum Inhibitory Concentration (MIC) against yeast, broth dilution", "format": "cell-based", "conditions": "37° C., 20 hours, mean of duplicate"}, "[7]": {"tested_on": "Candida albicans (ATCC 10231)", "experiment": "Minimum Inhibitory Concentration (MIC) against yeast, broth dilution", "format": "cell-based", "conditions": "37° C., 20 hours, mean of duplicate"}, "[8]": {"tested_on": "Candida albicans KJP-000531594", "experiment": "In vitro study of inhibition of growth and lethality against yeast (MIC/MLC susceptibility test), isolate C", "format": "cell-based", "conditions": "Candida albicans, 1st pair of lines"}, "[9]": {"tested_on": "Torulopsis glabrata JHC-BC9951635", "experiment": "In vitro study of inhibition of growth and lethality against yeast (MIC/MLC susceptibility test), isolate E", "format": "cell-based", "conditions": "Torulopsis glabrata, 2nd pair of lines, isolate assigned by line order"}, "[10]": {"target": "T1, NAD synthetase (recombinant protein from B. subtilis; purified) (Bacillus subtilis, UniProt P08164)", "T1 construct": "made in house", "T1 sequence (P08164 whole entry)": "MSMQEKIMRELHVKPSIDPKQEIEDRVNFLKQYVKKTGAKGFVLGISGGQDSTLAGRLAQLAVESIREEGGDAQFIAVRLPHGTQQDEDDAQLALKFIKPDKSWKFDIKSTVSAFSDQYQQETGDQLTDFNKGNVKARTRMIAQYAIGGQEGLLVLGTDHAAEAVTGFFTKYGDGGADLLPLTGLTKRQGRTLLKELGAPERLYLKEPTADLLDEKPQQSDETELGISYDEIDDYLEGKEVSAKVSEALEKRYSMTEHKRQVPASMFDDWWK", "experiment": "NAD synthetase enzyme inhibition assay (coupled enzymatic assay, HTS)", "format": "biochemical", "conditions": "table of structures used in the yeast assay (Example 4)", "method": "NAD Synthetase Enzyme Inhibition Assay-Determination of Test Compound Concentrations Providing 50% Inhibition ([…]) of the Maximum Enzyme Rate\nThe potential inhibitory activity of the synthetic compounds was determined by the use of a coupled enzymatic assay. The coupled assay involves two steps as summarized below. [drawing 98]\nThe measurement of inhibitory activities of the test compounds was facilitated by the use of a high through-put screening system (HTS system). The HTS system utilizes an integrated Sagian 2M ORCA robotic system coordinating the functions of a Beckman Biomek 2000 liquid handler and a Molecular Devices SpectraMax Plus spectrophotometer. The 2M ORCA robotic station is responsible for the movement of all hardware and the integration of multiple stations on the worksurface. The Biomek 2000 is programmed to perform all phases of liquid dispensing and mixing. The SpectraMax Plus spectrophotometer is equipped to monitor absorbance in a 96-well plate format.\nThe Biomek 2000 mixes these components utilizing a predefined mixing program. […] The reaction is monitored by measuring the increase in absorbance at 340 nm (NADH). The linear portion of the reaction is monitored for 180 sec. The initial velocity is determined using Softmax Pro, the software supplied with the Molecular Devices SpectrMax Plus spectrophotometer.\nThe test compounds were supplied as a stock solution with a concentration of 50 mM dissolved in 100% dimethyl sulfoxide (DMSO). An initial screen was conducted on all compounds using a 2 or 3 concentration screen. The 2 panel screen used concentrations of 0.2 mM and 0.1 mM for the compounds. The 3 panel screen used concentrations of 0.2 mM, 0.1 mM, and 0.05 mM. […] The IC50 values for each compound were determined graphically from a plot of % inhibition versus […]."}, "[11]": {"tested_on": "Candida tropicalis (ATCC 750)", "experiment": "Minimum Inhibitory Concentration (MIC) against yeast, broth dilution", "format": "cell-based", "conditions": "37° C., 20 hours, mean of duplicate"}, "[12]": {"tested_on": "Torulopsis glabrata ERH-BC9938274", "experiment": "In vitro study of inhibition of growth and lethality against yeast (MIC/MLC susceptibility test), isolate F", "format": "cell-based", "conditions": "Torulopsis glabrata, 1st pair of lines, isolate assigned by line order"}, "Male CD-1 mice": {"tested_on": "Male CD-1 mice", "experiment": "In vivo toxicity: intraperitoneal (IP) dosage in mice resulting in 50% lethality (LD50)", "conditions": "single IP dose, observed 14 days"}},
  "note": "“And” between values parts separate entries of the source, which are not always exact repeats. Equal values may be shown once.",
  "data": [
    {"smiles": "C[n+]1cccc(C(=O)OCCCCCCCCn2ccc3cc(OCc4ccccc4)ccc32)c1", "note": "[Compound 769]", "values": [
      {"measurement": "Minimum Inhibitory Conc. (MIC), 24 hr.", "setting": "[1]; read at 24 hr", "result": 0.25, "unit": "µg/mL"},
      {"measurement": "Minimum Inhibitory Conc. (MIC), 48 hr.", "setting": "[1]; read at 48 hr", "result": 0.5, "unit": "µg/mL"},
      {"measurement": "Minimum Lethal Conc. (MLC)", "setting": "[1]", "result": 2, "unit": "µg/mL"},
      {"measurement": "Minimum Inhibitory Conc. (MIC), 24 hr.", "setting": "[2]; read at 24 hr", "result": 1, "unit": "µg/mL"},
      {"measurement": "Minimum Inhibitory Conc. (MIC), 48 hr.", "setting": "[2]; read at 48 hr", "result": 2, "unit": "µg/mL"},
      {"measurement": "Minimum Lethal Conc. (MLC)", "setting": "[2]", "result": 8, "unit": "µg/mL"},
      {"measurement": "Minimum Inhibitory Conc. (MIC), 48 hr.", "setting": "[3]; read at 48 hr", "result": "0.5 µg/mL and 1 µg/mL"},
      {"measurement": "Minimum Inhibitory Conc. (MIC), 72 hr.", "setting": "[3]; read at 72 hr", "result": "0.5 µg/mL and 1 µg/mL"},
      {"measurement": "Minimum Lethal Conc. (MLC)", "setting": "[3]", "result": 2, "unit": "µg/mL"},
      {"measurement": "Minimum Inhibitory Conc. (MIC), 24 hr.", "setting": "[4]; read at 24 hr", "result": 1, "unit": "µg/mL"},
      {"measurement": "Minimum Inhibitory Conc. (MIC), 48 hr.", "setting": "[4]; read at 48 hr", "result": 1, "unit": "µg/mL"},
      {"measurement": "Minimum Lethal Conc. (MLC)", "setting": "[4]", "result": 2, "unit": "µg/mL"},
      {"measurement": "Minimum Inhibitory Conc. (MIC), 48 hr.", "setting": "[5]; read at 48 hr", "result": 0.5, "unit": "µg/mL"},
      {"measurement": "Minimum Inhibitory Conc. (MIC), 72 hr.", "setting": "[5]; read at 72 hr", "result": 1, "unit": "µg/mL"},
      {"measurement": "Minimum Lethal Conc. (MLC)", "setting": "[5]", "result": 2, "unit": "µg/mL"},
      {"measurement": "MIC Candida tropicalis (ATCC 28707)", "setting": "[6]", "result": 0.098, "unit": "µg/mL"},
      {"measurement": "MIC Candida albicans (ATCC 10231)", "setting": "[7]", "result": 4.7, "unit": "µg/mL"},
      {"measurement": "Minimum Inhibitory Conc. (MIC), 24 hr.", "setting": "[8]; read at 24 hr, isolate not given, assigned by line order and MLC of Table 4B", "result": "2 µg/mL and 1 µg/mL"},
      {"measurement": "Minimum Inhibitory Conc. (MIC), 48 hr.", "setting": "[8]; read at 48 hr, isolate assigned by line order", "result": "2 µg/mL and 4 µg/mL"},
      {"measurement": "Minimum Lethal Conc. (MLC)", "setting": "[8]; isolate assigned by line order", "result": 8, "unit": "µg/mL"},
      {"measurement": "Minimum Inhibitory Conc. (MIC), 24 hr.", "setting": "[9]; read at 24 hr", "result": 0.5, "unit": "µg/mL"},
      {"measurement": "Minimum Inhibitory Conc. (MIC), 48 hr.", "setting": "[9]; read at 48 hr", "result": 1, "unit": "µg/mL"},
      {"measurement": "Minimum Lethal Conc. (MLC)", "setting": "[9]", "result": 1, "unit": "µg/mL"},
      {"measurement": "IC50 (μg/mL) for Inhibit. of NAD Synthetase", "setting": "[10]", "result": 20, "unit": "µg/mL"},
      {"measurement": "MIC Candida tropicalis (ATCC 750)", "setting": "[11]", "result": 0.098, "unit": "µg/mL"},
      {"measurement": "Minimum Inhibitory Conc. (MIC), 24 hr.", "setting": "[12]; read at 24 hr", "result": 1, "unit": "µg/mL"},
      {"measurement": "Minimum Inhibitory Conc. (MIC), 48 hr.", "setting": "[12]; read at 48 hr", "result": 2, "unit": "µg/mL"},
      {"measurement": "Minimum Lethal Conc. (MLC)", "setting": "[12]", "result": 2, "unit": "µg/mL"},
      {"measurement": "LD50", "setting": "Male CD-1 mice", "result": 43, "unit": "mg/kg"}
    ]}
  ]
}
